Reference: the NIST ThermoML archive (doi:10.1016/j.jct.2012.03.031)

Assay: molar heat capacity at constant pressure
Settings: 101.33 kPa

CCCCc1ccc(C(=O)Oc2ccc(C#N)c(F)c2)cc1 [4-cyano-3-fluorophenyl 4-butylbenzoate]
Settings | molar heat capacity at constant pressure [J/K/mol]
182.62 K, Crystal 1, Small (less than 1 g) adiabatic calorimetry | 248.29
182.95 K, Crystal 1, Small (less than 1 g) adiabatic calorimetry | 248.51
183.94 K, Crystal 1, Small (less than 1 g) adiabatic calorimetry | 249.95
184.27 K, Crystal 2, Small (less than 1 g) adiabatic calorimetry | 270.08
185.26 K, Crystal 1, Small (less than 1 g) adiabatic calorimetry | 251.54
185.59 K, Crystal 1, Small (less than 1 g) adiabatic calorimetry | 251.57
186.58 K, Crystal 1, Small (less than 1 g) adiabatic calorimetry | 253
186.82 K, Crystal 2, Small (less than 1 g) adiabatic calorimetry | 273.41
187.89 K, Crystal 1, Small (less than 1 g) adiabatic calorimetry | 254.44
188.25 K, Crystal 1, Small (less than 1 g) adiabatic calorimetry | 254.7
189.2 K, Crystal 1, Small (less than 1 g) adiabatic calorimetry | 256.01
189.37 K, Crystal 2, Small (less than 1 g) adiabatic calorimetry | 276.6
190 K, Crystal 1, Vacuum adiabatic calorimetry | 256.78
190 K, Crystal 2, Vacuum adiabatic calorimetry | 277.35
190.5 K, Crystal 1, Small (less than 1 g) adiabatic calorimetry | 257.62
190.92 K, Crystal 1, Small (less than 1 g) adiabatic calorimetry | 257.87
191.8 K, Crystal 1, Small (less than 1 g) adiabatic calorimetry | 259.15
191.94 K, Crystal 2, Small (less than 1 g) adiabatic calorimetry | 279.67
193.09 K, Crystal 1, Small (less than 1 g) adiabatic calorimetry | 260.81
193.6 K, Crystal 1, Small (less than 1 g) adiabatic calorimetry | 261.01
194.38 K, Crystal 1, Small (less than 1 g) adiabatic calorimetry | 262.19
194.52 K, Crystal 2, Small (less than 1 g) adiabatic calorimetry | 282.72
195.67 K, Crystal 1, Small (less than 1 g) adiabatic calorimetry | 263.76
196.29 K, Crystal 1, Small (less than 1 g) adiabatic calorimetry | 264.21
196.94 K, Crystal 1, Small (less than 1 g) adiabatic calorimetry | 265.24
197.12 K, Crystal 2, Small (less than 1 g) adiabatic calorimetry | 285.61
198.22 K, Crystal 1, Small (less than 1 g) adiabatic calorimetry | 266.88
199 K, Crystal 1, Small (less than 1 g) adiabatic calorimetry | 267.79
199.49 K, Crystal 1, Small (less than 1 g) adiabatic calorimetry | 268.59
199.73 K, Crystal 2, Small (less than 1 g) adiabatic calorimetry | 288.75
200 K, Crystal 1, Vacuum adiabatic calorimetry | 269.03
200 K, Crystal 2, Vacuum adiabatic calorimetry | 289.06
200.76 K, Crystal 1, Small (less than 1 g) adiabatic calorimetry | 270.11
201.72 K, Crystal 1, Small (less than 1 g) adiabatic calorimetry | 271.16
202.02 K, Crystal 1, Small (less than 1 g) adiabatic calorimetry | 271.81
202.35 K, Crystal 2, Small (less than 1 g) adiabatic calorimetry | 291.75
203.27 K, Crystal 1, Small (less than 1 g) adiabatic calorimetry | 273.36
204.44 K, Crystal 1, Small (less than 1 g) adiabatic calorimetry | 274.73
204.53 K, Crystal 1, Small (less than 1 g) adiabatic calorimetry | 275.01
204.98 K, Crystal 2, Small (less than 1 g) adiabatic calorimetry | 294.58
205.77 K, Crystal 1, Small (less than 1 g) adiabatic calorimetry | 276.69
207.02 K, Crystal 1, Small (less than 1 g) adiabatic calorimetry | 278.34
207.18 K, Crystal 1, Small (less than 1 g) adiabatic calorimetry | 278.39
207.63 K, Crystal 2, Small (less than 1 g) adiabatic calorimetry | 297.45
208.26 K, Crystal 1, Small (less than 1 g) adiabatic calorimetry | 279.95
209.49 K, Crystal 1, Small (less than 1 g) adiabatic calorimetry | 281.68
209.93 K, Crystal 1, Small (less than 1 g) adiabatic calorimetry | 282.11
210 K, Crystal 1, Vacuum adiabatic calorimetry | 282.2
210 K, Crystal 2, Vacuum adiabatic calorimetry | 300.06
210.29 K, Crystal 2, Small (less than 1 g) adiabatic calorimetry | 300.38
210.72 K, Crystal 1, Small (less than 1 g) adiabatic calorimetry | 283.2
211.95 K, Crystal 1, Small (less than 1 g) adiabatic calorimetry | 284.9
212.69 K, Crystal 1, Small (less than 1 g) adiabatic calorimetry | 285.7
212.97 K, Crystal 2, Small (less than 1 g) adiabatic calorimetry | 303.2
213.18 K, Crystal 1, Small (less than 1 g) adiabatic calorimetry | 286.42
214.4 K, Crystal 1, Small (less than 1 g) adiabatic calorimetry | 288
215.46 K, Crystal 1, Small (less than 1 g) adiabatic calorimetry | 289.41
215.62 K, Crystal 1, Small (less than 1 g) adiabatic calorimetry | 289.65
215.65 K, Crystal 2, Small (less than 1 g) adiabatic calorimetry | 306.03
216.83 K, Crystal 1, Small (less than 1 g) adiabatic calorimetry | 291.26
218.04 K, Crystal 1, Small (less than 1 g) adiabatic calorimetry | 292.84
218.24 K, Crystal 1, Small (less than 1 g) adiabatic calorimetry | 293.08
218.35 K, Crystal 2, Small (less than 1 g) adiabatic calorimetry | 308.99
219.24 K, Crystal 1, Small (less than 1 g) adiabatic calorimetry | 294.47
220 K, Crystal 1, Vacuum adiabatic calorimetry | 295.42
220 K, Crystal 2, Vacuum adiabatic calorimetry | 310.55
220.45 K, Crystal 1, Small (less than 1 g) adiabatic calorimetry | 296.21
221.03 K, Crystal 1, Small (less than 1 g) adiabatic calorimetry | 296.79
